{"source": "paper PMC8998618", "about": "“A Pharmacokinetic and Metabolism Study of the TRPC6 Inhibitor SH045 in Mice by LC-MS/MS” (International Journal of Molecular Sciences, 2022)", "assay": "time-dependent metabolization (stability) in MLM and IVIVE of hepatic clearance", "type": "in vitro ADME, mouse", "excerpt": "In the widely used concept of the “well-stirred” model, liver represents a single uniform compartment. It is further assumed that the concentration of unbound SH045 leaving the liver is in equilibrium with its unbound concentration in hepatocytes (detailed calculation in Supplementary Materials SM8, summarized values in SR4). Briefly, microsomal intrinsic clearance was converted to hepatic clearance: CLhep = Q × fu × CLint/Q + (fu × CLint), where fu is the unbound fraction of SH045 in blood and Q is the hepatic blood flow in mice.\nFor this purpose, remaining concentrations of SH045 in microsomes were determined to calculate the intrinsic microsomal clearance CLint,micr, the intrinsic clearance CLint, equal to the maximum enzyme activity of liver and for in vitro-in vivo exploration of hepatic clearance CLhep in mouse and human using the well-stirred model. The algorithm for these calculations is given in detail in the Supplementary Materials SM8. […]\nAll microsome incubations were stopped with 1 mL ice -cold ACN containing 5 µg/mL IS, vortexed for 1 min and cooled at -20 °C for 10 min. […]\nSM6 Metabolization studies in MLM and HLM and calculation of hepatic clearance For determination of vmax and Km of the NADPH-dependent microsomal depletion of SH045, the following incubations were performed for MLM and HLM, respectively. 2 µL SH045 (final concentration 0.5 – 100 µM, in triplicate), 12.5 µL HLM or MLM (finally 0.5 mg/mL protein) and 460.5 µL DPBS were vortexed and preincubated 37 °C for 5 min. The reaction was initiated by addition of 25 µL analogously pre-incubated β-NADPH (finally: 1 mM).\nAfter gentle shaking at 37 °C and 300 rpm for 10 min, incubations were terminated and samples prepared as described […]\nTestosterone (10 µM in ACN/DPBS 2/3, v/v) instead of SH045 was used as positive control and analyzed by an appropriate HPLC method with UV detection.\nNegative controls contained either no NADPH, no MLM or HLM or none of them. […]\nMenten constant Km were calculated using Lineweaver-Burk transformation. From Km an appropriate drug concentration of 2 µM was derived as prerequisite for experimental in vitro determination of t1/2 required for further exploration of clearance.\nFor this purpose, microsomes were incubated as described above with 2 µM SH045 for indicated time intervals up to 30 min. The remaining concentrations of SH045 were determined to calculate the intrinsic microsomal clearance CLint,micr the intrinsic clearance CLint, equal to the maximum enzyme activity of liver and for in vitro-in vivo exploration of hepatic clearance CLhep in mouse and human using the “well-stirred” model [6].\nSM7 Identification of metabolism pathways and metabolites of SH045 in MLM and HLM To determine possible metabolism pathways of SH045 in MLM and HLM, an in vitro inhibition approach was performed with CYP-isoform specific inhibitors (final concentration): ciprofloxacin (CYP1A2; 150 µM), pilocarpine (CYP2A6; 50 µM), ticlopidine (CYP2B6; 5 µM), quercetin (CYP2C8; 2 µM), sulfaphenazole (CYP2C9; 10 µM), fluvoxamine (CYP2C19; 10 µM), quinidine (CYP2D6; 10 µM), 4-methyl pyrazole (CYP2E1; 100 µM) and ketoconazole (CYP3A4; 1 µM) [7, 8]. The inhibitors were dissolved in DPBS and appropriate methanol, the organic solvents not […]\nSH045 (2 µM) was pre-incubated with MLM or HLM (0.5 mg/mL) and the specific inhibitor for 5 min at 37 °C in DPBS.\nTiclopidine, a time-dependent inhibitor was pre-incubated for 15 min [9]. Incubations were performed in triplicate with NADPH (1 mM) in a final volume of 500 µL for 2 min and 10 min with pre-incubated MLM and HLM, respectively, terminated with 1 mL ice-cold ACN and processed as described above for LC-MS/MS. A sample without any inhibitor served as a positive control. Incubations with an equal volume of DMSO instead of SH045 and samples without NADPH, MLM or HLM or both, respectively, served as negative controls.\nTo explore metabolites of SH045 formed by microsomes, D PBS, alamethicin (25 µg/mL) [10] and MLM or HLM (1.0 […]", "data": [{"smiles": "C=C[C@@](C)(O)CC[C@H]1C(=C)C[C@H](OC(=O)NC)[C@H]2C(C)(C)CCC[C@]12C", "note": "[SH045, (1S,4S,4aR,8aS)-4-((S)-3-Hydroxy-3-methylpent-4-en-1-yl)-4a,8,8-trimethyl-3-methylenedecahydronaphthalen-1-yl methylcarbamate]", "values": [{"measurement": "microsomal CLint at 2 µM", "setting": "CD-1, mouse, liver microsomes, mouse liver microsomes, read-out: CLint, micr", "result": 1170, "unit": "µL/min/mg"}, {"measurement": "CLint scaled at 2 µM", "setting": "CD-1, mouse, liver microsomes, mouse, scaled from CLint,micr", "result": 276, "unit": "L/h/kg"}, {"measurement": "half-life at 2 µM", "setting": "male, CD-1, pH 7.4, mouse liver microsomes 0.5 mg/mL, 2 µM SH045, NADPH", "result": 1.18, "unit": "min"}, {"measurement": "CLint, micr", "setting": "mouse liver microsomes", "result": 1173.6, "unit": "µL/min/mg"}, {"measurement": "CLhep", "setting": "mouse, predicted by well-stirred model, fu 0.3%, Q 90 mL/min/kg", "result": 0.717, "unit": "L/h/kg"}, {"measurement": "CLint", "setting": "mouse, scaled from CLint,micr", "result": 275.68, "unit": "L/h/kg"}]}]}
